According to patent publication US12534469B2 (CHILDREN'S HOSPITAL MEDICAL CENTER, priority 2020, dated 2026):
Read-outs that look alike come from different tables or passages of the source.

Columns and labels:
MOLM14 D835Y cells = assay: MOLM14 D835Y cell viability assay (Cell Titer Glo); type: cell-based; conditions: Homo sapiens, MOLM-14, 48 h
Protocol: (§1) Both cell lines have activated FLT3 receptors, each of which carry additional resistance mutations in the kinase domain (D835Y and F691L, respectively).
(§2) MOLM14 D835Y and MOLM14 F691L cells were grown in RPMI-1640 media supplemented with 20% fetal bovine serum (FBS). For viability/cytotoxicity assessments, cells were seeded into 1536-well white polystyrene tissue culture-treated Greiner plates using a Multidrop Combi dispenser (ThermoFisher), in final volume 5 μL of growth media per well, at a density of 1000 cells per well. After cell addition, 23 nL of test compound were transferred into individual wells (22 doses tested for each test compound, with a 1:2 dilution series starting at 10 μM) via a 1536 pin-tool. Bortezomib (final concentration 2.3 μM) was used as a positive control for cell cytotoxicity. Plates were incubated for 48 hours at standard incubator conditions covered by a stainless steel gasketed lid to prevent evaporation. 48 hours post compound addition, 3 μL of Cell Titer Glo (Promega) were added to each well and plates were incubated at room temperature for 15 minutes with the stainless-steel lid in place. Luminescence readings were taken using a Viewlux imager (PerkinElmer) with a 2 second exposure time per plate.

IRAK1 = target: T1, IRAK1 (Homo sapiens, UniProt P51617); assay: RBC HotSpot Kinase Assay, IRAK1; type: biochemical
T1 construct: purchased Reaction Biology (RBC HotSpot Kinase Assay)
T1 sequence (P51617 whole entry): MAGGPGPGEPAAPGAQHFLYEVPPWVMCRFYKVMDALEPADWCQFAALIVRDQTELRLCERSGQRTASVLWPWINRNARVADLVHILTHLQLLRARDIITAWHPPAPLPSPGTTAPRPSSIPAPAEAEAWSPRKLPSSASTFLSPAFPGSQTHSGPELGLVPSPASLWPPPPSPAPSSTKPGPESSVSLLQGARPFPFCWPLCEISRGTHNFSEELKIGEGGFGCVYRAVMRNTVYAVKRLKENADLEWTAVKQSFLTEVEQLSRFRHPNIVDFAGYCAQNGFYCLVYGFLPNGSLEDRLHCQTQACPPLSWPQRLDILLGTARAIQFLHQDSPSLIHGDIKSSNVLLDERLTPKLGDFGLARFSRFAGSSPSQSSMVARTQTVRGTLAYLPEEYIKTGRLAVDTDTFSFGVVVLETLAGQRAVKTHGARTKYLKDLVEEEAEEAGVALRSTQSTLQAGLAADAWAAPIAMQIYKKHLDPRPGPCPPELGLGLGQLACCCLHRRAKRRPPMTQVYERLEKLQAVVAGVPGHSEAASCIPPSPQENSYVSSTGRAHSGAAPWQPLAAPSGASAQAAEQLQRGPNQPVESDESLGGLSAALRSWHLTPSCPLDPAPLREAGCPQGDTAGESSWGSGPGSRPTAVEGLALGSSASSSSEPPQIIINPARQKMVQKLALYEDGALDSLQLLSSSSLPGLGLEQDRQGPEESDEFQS
Outline: (§3)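 Radiometric filter-binding (HotSpot) activity assay on isolated recombinant kinase, possibly truncated or catalytic domain only, in 20 mM Hepes pH 7.5, 10 mM MgCl2, 1 mM EGTA, 2 mM DTT, 1% DMSO. Compound preincubated 20 min with kinase and substrate, then ^33P-ATP added. Reaction 2 h at room temperature, read by P81 filter binding.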

THP-1-Blue NF-κB cells = assay: NF-kB SEAP reporter assay in THP-1-Blue NF-κB cells; type: cell-based; conditions: 24 hours
Protocol: THP-1-Blue NF-κB cells (InvivoGen) carrying a stable integrated NF-κB-inducible secreted embryonic alkaline phosphatase (SEAP) reporter construct were plated at a concentration of 1×10^5 cells per well. The cells were stimulated with Pam3CSK4 (1 ng/mL) or hIL1B (1 ng/mL). After 10-20 minutes, the cells were then treated with vehicle (DMSO) or serial dilutions of the test compounds (10 doses tested for each test compound, with a 1:10 dilution series starting at 1 μM or 3 μM) with a final volume of 200 μL for 24 hours at 37° C. After 24 hours, the cells were centrifuged and 20 μL supernatant was incubated with 180 μL QUANTI-Blue reagent at 37° C. for 30-60 minutes. The levels of NF-κB-induced gene expression were measured in a microplate reader at 620 nm.

MOLM14 F691L cells = assay: MOLM14 F691L cell viability assay (Cell Titer Glo); type: cell-based; conditions: Homo sapiens, MOLM-14, 48 h
Protocol: as §1, §2

FLT3 = target: T2, FLT3 (Homo sapiens, UniProt P36888); assay: RBC HotSpot Kinase Assay, FLT3; type: biochemical
T2 construct: purchased Reaction Biology (RBC HotSpot Kinase Assay)
T2 sequence (P36888 564-958 limits assumed): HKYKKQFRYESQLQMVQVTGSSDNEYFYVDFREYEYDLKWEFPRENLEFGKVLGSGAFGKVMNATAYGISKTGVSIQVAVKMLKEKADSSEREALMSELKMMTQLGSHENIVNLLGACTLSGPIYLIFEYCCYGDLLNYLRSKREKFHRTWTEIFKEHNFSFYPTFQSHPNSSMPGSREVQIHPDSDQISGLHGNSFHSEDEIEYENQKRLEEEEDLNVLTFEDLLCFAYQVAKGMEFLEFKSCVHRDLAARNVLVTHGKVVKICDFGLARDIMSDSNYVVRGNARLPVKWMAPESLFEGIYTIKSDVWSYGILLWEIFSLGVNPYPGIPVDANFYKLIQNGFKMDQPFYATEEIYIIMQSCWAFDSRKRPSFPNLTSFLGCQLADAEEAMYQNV
Outline: as §3

IRAK4 = target: T3, IRAK4 (Homo sapiens, UniProt Q9NWZ3); assay: RBC HotSpot Kinase Assay, IRAK4; type: biochemical; design: purchased Reaction Biology (RBC HotSpot Kinase Assay)
T3 sequence (Q9NWZ3 1-460): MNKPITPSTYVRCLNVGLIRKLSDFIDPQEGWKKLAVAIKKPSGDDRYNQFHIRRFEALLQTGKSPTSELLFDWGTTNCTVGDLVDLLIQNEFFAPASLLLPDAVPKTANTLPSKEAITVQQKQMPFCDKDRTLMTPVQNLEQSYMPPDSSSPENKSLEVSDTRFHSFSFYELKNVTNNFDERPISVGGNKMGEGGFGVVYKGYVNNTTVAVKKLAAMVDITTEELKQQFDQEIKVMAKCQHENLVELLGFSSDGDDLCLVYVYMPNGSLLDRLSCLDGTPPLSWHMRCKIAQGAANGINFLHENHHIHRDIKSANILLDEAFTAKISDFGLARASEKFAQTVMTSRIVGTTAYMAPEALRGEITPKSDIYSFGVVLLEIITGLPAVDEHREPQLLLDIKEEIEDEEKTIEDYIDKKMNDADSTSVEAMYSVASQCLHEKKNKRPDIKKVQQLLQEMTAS
Outline: as §3

[1] = stimulated with Pam3CSK4 (1 ng/mL), read-out: NF-κB Pam3SCK4 IC50
[2] = stimulated with hIL1B (1 ng/mL), read-out: NF-κB IL1B IC50

Row | IC50 (MOLM14 D835Y cells) [nM] | IC50 (IRAK1) [nM] | IC50 (THP-1-Blue NF-κB cells; [1]) [nM] | IC50 (THP-1-Blue NF-κB cells; [2]) [nM] | IC50 (MOLM14 F691L cells) [nM] | IC50 (FLT3) [nM] | IC50 (IRAK4) [nM] | Structure (SMILES)
1 | 77 | 25 | 20 | 46 | 1090 | < 0.5 | < 0.5 | COc1cc2ncc(-c3cccc(N[C@H]4CNC[C@@H]4F)n3)n2nc1C(F)F [Compound 116, 6-(6-(difluoromethyl)-7-methoxyimidazo[1,2-b]pyridazin-3-yl)-N-((3S,4S)-4-fluoropyrrolidin-3-yl)pyridin-2-amine]
2 | 61 | 70 | 76 | 216 | 770 | < 0.5 | 2 | COc1cc2ncc(-c3cccc(N[C@H]4CNCC[C@@H]4F)n3)n2nc1C(F)F [Compound 118, 6-(6-(difluoromethyl)-7-methoxyimidazo[1,2-b]pyridazin-3-yl)-N-((3S,4S)-4-fluoropiperidin-3-yl)pyridin-2-amine]
